Source: paper PMC11213860, “Competitive protein recruitment in artificial cells” (Communications Chemistry, 2024)

T1: 14-3-3γ (Homo sapiens, UniProt P61981)
T1 construct: His-tagged full-length 14-3-3σ and 14-3-3γ were kindly provided by
T1 sequence (P61981 1-247): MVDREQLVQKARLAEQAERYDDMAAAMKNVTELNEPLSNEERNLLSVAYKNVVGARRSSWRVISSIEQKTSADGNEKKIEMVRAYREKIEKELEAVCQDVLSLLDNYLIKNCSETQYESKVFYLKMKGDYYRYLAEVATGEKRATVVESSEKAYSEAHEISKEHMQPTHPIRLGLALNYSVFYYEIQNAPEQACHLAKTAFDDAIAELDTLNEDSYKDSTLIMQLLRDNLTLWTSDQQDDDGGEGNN

B1: His-tagged full-length 14-3-3σ (natural protein)
chain: MERASLIQKAKLAEQAERYEDMAAFMKGAVEKGEELSCEERNLLSVAYKNVVGGQRAAWRVLSSIEQKSNEEGSEEKGPEVREYREKVETELQGVCDTVLGLLDSHLIKEAGDAESRVFYLKMKGDYYRYLAEVATGDDKKRIIDSARSAYQEAMDISKKEMPPTNPIRLGLALNFSVFHYEIANSPEEAISLAKTTFDEAMADLHTLSEDSYKDSTLIMQLLRDNLTLWTADNAGEEGGEAPQEPQS
modifications: in the coacervate experiments labelled with Cy5 or DyLight 405 (NHS ester, aspecific)

Experiments:
14-3-3γ = biological target: T1, 14-3-3γ; test: Fluorescence anisotropy assay, titration of 14-3-3γ to labeled peptide; assay type: binding; conditions: ratio of KD values from fluorescence anisotropy
T14-3-3 = test: Fluorescence anisotropy assay, titration of T14-3-3 to labeled peptides; assay type: binding; conditions: Supplementary Table 1; unphosphorylated peptide, cf. Supplementary Fig. 7
Procedure: 14-3-3 was titrated in a 2-fold dilution series to 10 nM of fluorescently labeled peptide in coacervate buffer (20 mM HEPES, 100 mM KCl, pH 7.5) supplemented with 0.1% (v/v) of Tween 20 and 1 mg/mL of bovine serum albumin (BSA) to prevent aspecific hydrophobic interactions. Dilution series were prepared in low volume, non-binding polystyrene 384-well plates (Corning 4514 Black Round Bottom 384-well plates). Measurements were performed directly after plate preparation using a Tecan Spark plate reader at room temperature. The following settings were used: excitation 485 ± 20 nm; emission: 535 ± 25 nm; mirror: Dichroic 510; number of flashes: 30; integration time: 40 µs; settle time: 1 ms; gain: optimal; and Z-position: calculated from well. Wells containing only the labeled peptide were used to set as G-factor at 35 mAU. All data were analyzed using GraphPad Prism (version 10.0.3) and fitted using a four-parameter logistic model (4PL) to determine binding affinities (KD). All results are based on triplicates, with the mean and standard error determined by GraphPad.

BiExoS [change] peptide = test: fluorescence polarisation

Molecule	Kd (BiExoS [change] peptide) [µM]	other results
CC(C)C[C@H](NC(=O)[C@H](CO)NC(=O)CNC(=O)[C@H](CCC(=O)O)NC(=O)[C@H](CO)NC(=O)[C@H](CO)NC(=O)[C@@H]1CCCN1C(=O)[C@H](CO)NC(=O)[C@H](CO)NC(=O)[C@@H](NC(=O)[C@H](CC(N)=O)NC(=O)[C@H](Cc1ccccc1)NC(=O)[C@@H](NC(=O)[C@H](Cc1ccccc1)NC(=O)[C@H](C)NC(=O)[C@H](Cc1c[nH]cn1)NC(=O)[C@@H]1CCCN1C(=O)[C@@H](NC(=O)[C@H](COP(=O)(O)O)NC(=O)[C@H](Cc1ccc(O)cc1)NC(=O)[C@H](CCCNC(=N)N)NC(=O)[C@H](Cc1c[nH]cn1)NC(=O)[C@H](CCC(N)=O)NC(=O)CCCCCNC(=S)Nc1ccc2c(c1)C(=O)OC21c2ccc(O)cc2Oc2cc(O)ccc21)[C@@H](C)O)[C@@H](C)O)[C@@H](C)O)C(=O)N[C@@H](CO)C(=O)N[C@@H](CCC(N)=O)C(=O)N[C@@H](CCCNC(=N)N)C(=O)N[C@@H](CCC(N)=O)C(=O)N[C@@H](CCCNC(=N)N)C(=O)N[C@@H](CO)C(=O)N[C@H](C(=O)N[C@@H](COP(=O)(O)O)C(=O)N[C@H](C(=O)N1CCC[C@H]1C(=O)N[C@@H](CC(N)=O)C(=O)N[C@H](C(=O)N[C@@H](Cc1c[nH]cn1)C(N)=O)C(C)C)[C@@H](C)O)[C@@H](C)O [FITC-c-Raf pS]	–	difference in bulk affinity of the peptide for the two isoforms (14-3-3σ vs 14-3-3γ) (14-3-3γ): 40 fold
FITC-Ahx-QHRYSTPHAFTFNTSSPSSEGSLSQRQRSTSTPNVH-Ac [c-Raf S233/S259, unphosphorylated FITC-labeled c-Raf S233/S259 peptide]	–	Binding mode to 14-3-3 (T14-3-3): No binding
His-tagged full-length 14-3-3γ (from UniProt P61981 1-247) (natural protein)	0.059	–
B1	23	–
